# Test results from ChEMBL document CHEMBL1201862, “PubChem BioAssay data set” (2004).
#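 Exposure lasted 48 hours, with cells grown in 96-well plates and compounds tested at five concentrations. The concentration for 50% growth inhibition is given as GI50.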 Calls of active or inactive are those of the source. No stated cut-off is given here; in the data, active = GI50 up to about 1.1 µM and inactive = higher.
# Columns and labels:
# Experiment in all cases: growth of human tumour cells (NCI), 48 h
# UACC-62 = test system: UACC-62
# SR = test system: SR
# HCT-15 = test system: HCT-15
# BT-549 = test system: BT-549
# PC-3 = test system: PC-3
# U-251 = test system: U-251
# NCI-H23 = test system: NCI-H23
# OVCAR-5 = test system: OVCAR-5
# 786-0 = test system: 786-0
# SK-MEL-2 = test system: SK-MEL-2
# TK-10 = test system: TK-10
# HOP-62 = test system: HOP-62
# SW-620 = test system: SW-620
# SN12C = test system: SN12C
# KM12 = test system: KM12
# OVCAR-3 = test system: OVCAR-3
# LOX IMVI = test system: LOX IMVI
# EKVX = test system: EKVX
# MCF7 = test system: MCF7
# HCT-116 = test system: HCT-116
# DU-145 = test system: DU-145
# ACHN = test system: ACHN
# K562 = test system: K562
# SK-MEL-28 = test system: SK-MEL-28
# COLO 205 = test system: COLO 205
# M14 = test system: M14
# UO-31 = test system: UO-31
# Malme-3M = test system: Malme-3M
# CAKI-1 = test system: CAKI-1
# SK-OV-3 = test system: SK-OV-3
# HL-60 = test system: HL-60
# NCI-H226 = test system: NCI-H226
# NCI-H522 = test system: NCI-H522
# CCRF-CEM = test system: CCRF-CEM
# NCI-H460 = test system: NCI-H460
# Hs-578T = test system: Hs-578T
# MDA-MB-435 = test system: MDA-MB-435
# SNB-19 = test system: SNB-19
# SF-539 = test system: SF-539
# MOLT-4 = test system: MOLT-4
# SK-MEL-5 = test system: SK-MEL-5
# HCC 2998 = test system: HCC 2998
# MDA-N = test system: MDA-N
# UACC-257 = test system: UACC-257
# OVCAR-4 = test system: OVCAR-4
# HT-29 = test system: HT-29
# RXF 393 = test system: RXF 393
# RPMI-8226 = test system: RPMI-8226
# IGROV-1 = test system: IGROV-1
# SF-295 = test system: SF-295
# T47D = test system: T47D
# SNB-75 = test system: SNB-75
# MDA-MB-231 = test system: MDA-MB-231
# NCI/ADR-RES = test system: NCI/ADR-RES
# A549 = test system: A549
# SF-268 = test system: SF-268
# HOP-92 = test system: HOP-92
# OVCAR-8 = test system: OVCAR-8
compound,measurement,setting,value
CCOC(=O)C1(C(=O)OCC)[C@@H](c2ccccc2)C2=NO[C@@H]3CCC[C@H]1[C@H]23,GI50,UACC-62,8.26 µM (inactive)
same,GI50,SR,40.7 µM (inactive)
same,GI50,HCT-15,56 µM
same,GI50,BT-549,42.7 µM (inactive)
same,GI50,PC-3,60.1 µM (inactive)
same,GI50,U-251,47.5 µM (inactive)
same,GI50,NCI-H23,42.5 µM (inactive)
same,GI50,OVCAR-5,> 100 µM (inactive)
same,GI50,786-0,89.3 µM (inactive)
same,GI50,SK-MEL-2,55.5 µM (inactive)
same,GI50,TK-10,49.4 µM (inactive)
same,GI50,HOP-62,43.6 µM (inactive)
same,GI50,SW-620,43.8 µM (inactive)
same,GI50,SN12C,> 100 µM (inactive)
same,GI50,KM12,28.9 µM (inactive)
same,GI50,OVCAR-3,27 µM (inactive)
same,GI50,LOX IMVI,81.1 µM (inactive)
same,GI50,EKVX,34.7 µM (inactive)
same,GI50,MCF7,41.7 µM (inactive)
same,GI50,HCT-116,45.5 µM (inactive)
same,GI50,DU-145,> 100 µM (inactive)
same,GI50,ACHN,66.7 µM (inactive)
same,GI50,K562,52.5 µM (inactive)
same,GI50,SK-MEL-28,> 100 µM (inactive)
same,GI50,COLO 205,29 µM (inactive)
same,GI50,M14,31.9 µM (inactive)
same,GI50,UO-31,53.3 µM (inactive)
same,GI50,Malme-3M,> 100 µM (inactive)
same,GI50,CAKI-1,44.9 µM (inactive)
same,GI50,SK-OV-3,53.6 µM (inactive)
same,GI50,HL-60,24.3 µM (inactive)
same,GI50,NCI-H226,78.5 µM (inactive)
same,GI50,NCI-H522,42.1 µM (inactive)
same,GI50,CCRF-CEM,23.8 µM (inactive)
same,GI50,NCI-H460,57.7 µM (inactive)
same,GI50,Hs-578T,> 100 µM (inactive)
same,GI50,MDA-MB-435,21.6 µM (inactive)
same,GI50,SNB-19,> 100 µM (inactive)
same,GI50,SF-539,96.2 µM (inactive)
same,GI50,MOLT-4,55.7 µM (inactive)
same,GI50,SK-MEL-5,24.3 µM (inactive)
same,GI50,HCC 2998,18 µM (inactive)
same,GI50,MDA-N,24.5 µM (inactive)
same,GI50,UACC-257,24 µM (inactive)
same,GI50,OVCAR-4,43 µM (inactive)
same,GI50,HT-29,45.4 µM (inactive)
same,GI50,RXF 393,48.4 µM (inactive)
same,GI50,RPMI-8226,23.5 µM (inactive)
same,GI50,IGROV-1,50.4 µM (inactive)
same,GI50,SF-295,51.6 µM (inactive)
same,GI50,T47D,20.8 µM (inactive)
same,GI50,SNB-75,47.4 µM (inactive)
same,GI50,MDA-MB-231,> 100 µM (inactive)
same,GI50,NCI/ADR-RES,56.9 µM (inactive)
same,GI50,A549,48.4 µM (inactive)
same,GI50,SF-268,> 100 µM (inactive)
same,GI50,HOP-92,42.7 µM (inactive)
same,GI50,OVCAR-8,58.9 µM (inactive)
